Here are results for 13 molecules from ChEMBL document CHEMBL4814025, “Exploring naltrexamine derivatives featuring azaindole moiety via nitrogen-walk approach to investigate their in vitro pharmacological profiles at the mu opioid receptor” (Bioorg Med Chem Lett, 2021).

Experiment [1] addresses Mu-type opioid receptor (Homo sapiens) (UniProt P35372). The experiment in a line: Partial agonist activity at mu opioid receptor (unknown origin) expressed in CHO cell membranes incubated for 1 hr by [35S]GTPgammaS binding assay relative to DAMGO. As to conditions: Membrane. In kind it is functional. (GTPγS resists hydrolysis and so accumulates on activated G proteins.)

Experiment [2] deals with Mu-type opioid receptor (Mus musculus) (UniProt P42866). The experiment in a line: Partial agonist activity at mouse mu opioid receptor expressed in CHO cell membranes assessed as stimulation of [35S]GTPgammaS binding incubated for 1.5 hrs by scintillation counting method relative to DAMGO. In kind it is functional. The note with it: Membrane.
Chain of Mu-type opioid receptor (Mus musculus) (P42866 whole entry): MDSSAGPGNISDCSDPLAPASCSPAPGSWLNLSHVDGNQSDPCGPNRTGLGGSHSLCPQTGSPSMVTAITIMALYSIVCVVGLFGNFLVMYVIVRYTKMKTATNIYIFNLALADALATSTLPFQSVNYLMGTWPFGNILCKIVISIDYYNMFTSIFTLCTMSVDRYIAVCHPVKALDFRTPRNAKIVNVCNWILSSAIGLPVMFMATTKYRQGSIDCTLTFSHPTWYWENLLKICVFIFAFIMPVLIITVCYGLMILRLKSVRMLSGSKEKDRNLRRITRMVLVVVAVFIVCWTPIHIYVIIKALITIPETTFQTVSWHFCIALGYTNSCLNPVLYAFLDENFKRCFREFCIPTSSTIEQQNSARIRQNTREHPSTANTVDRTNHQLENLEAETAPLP
For experiment [3], the target named is T1, Mu-type opioid receptor (Mus musculus, UniProt P42866). The experiment in a line: Partial agonist activity at mouse mu opioid receptor expressed in CHO cell membranes incubated for 1.5 hrs by [35S]GTPgammaS binding based scintillation counting method. In kind it is functional, Membrane.
T1 sequence (P42866 whole entry): as above
For experiment [4], the target named is T1, Mu-type opioid receptor. The experiment in a line: Displacement of [3H]-NLX from mouse mu opioid receptor expressed in CHO cell membranes measured after 1.5 hrs by competitive radioligand binding assay. Also on record: species or system Membrane. For orientation: In a radioligand displacement assay an active substance lowers the binding of a labelled ligand.

Structures are written as SMILES.

Chain of Mu-type opioid receptor (Homo sapiens) (P35372 whole entry): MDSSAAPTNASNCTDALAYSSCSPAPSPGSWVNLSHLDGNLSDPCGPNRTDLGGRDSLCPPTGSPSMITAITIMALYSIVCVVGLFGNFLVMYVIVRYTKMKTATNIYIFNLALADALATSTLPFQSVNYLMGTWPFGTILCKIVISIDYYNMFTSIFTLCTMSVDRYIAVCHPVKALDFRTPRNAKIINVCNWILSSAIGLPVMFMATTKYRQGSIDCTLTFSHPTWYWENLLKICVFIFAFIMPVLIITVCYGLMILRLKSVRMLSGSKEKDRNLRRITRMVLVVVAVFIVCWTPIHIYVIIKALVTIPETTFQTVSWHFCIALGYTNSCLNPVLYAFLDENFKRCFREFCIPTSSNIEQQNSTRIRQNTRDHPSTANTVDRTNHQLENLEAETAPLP

What is called Emax is the greatest response seen or fitted, relative to the assay's reference. `O=C(N[C@@H]1C=C[C@@]2(O)[C@H]3Cc4ccc(O)c5c4[C@@]2(CCN3CC2CC2)[C@H]1O5)c1c[nH]c2ccncc12` gave a maximal effect (Emax) in experiment [1] of 14.9%.
In experiment [1], `O=C(N[C@H]1C=C[C@@]2(O)[C@H]3Cc4ccc(O)c5c4[C@@]2(CCN3CC2CC2)[C@H]1O5)c1c[nH]c2cnccc12` returned an Emax of 21.1%.
Consider `O=C(N[C@H]1C=C[C@@]2(O)[C@H]3Cc4ccc(O)c5c4[C@@]2(CCN3CC2CC2)[C@H]1O5)c1c[nH]c2ncccc12`, for which, in experiment [1], the Emax was 22.1%.
In experiment [1], `O=C(N[C@H]1C=C[C@@]2(O)[C@H]3Cc4ccc(O)c5c4[C@@]2(CCN3CC2CC2)[C@H]1O5)c1c[nH]c2cccnc12` showed an Emax of 18%.
Turning to `O=C(N[C@@H]1C=C[C@@]2(O)[C@H]3Cc4ccc(O)c5c4[C@@]2(CCN3CC2CC2)[C@H]1O5)c1c[nH]c2ncccc12`, the Emax in experiment [1] (filed as partial agonist) was 40.7%.
Turning to `O=C(N[C@H]1C=C[C@@]2(O)[C@H]3Cc4ccc(O)c5c4[C@@]2(CCN3CC2CC2)[C@H]1O5)c1cccc2cc[nH]c12`, in experiment [2], the Emax stood at 19.1%.
For orientation: EC50 means the midpoint of the concentration-response curve. Low readings indicate greater potency, high ones weaker potency. As usually defined, the Ki is a measure of affinity in units of concentration, obtained from inhibition or displacement. High values mean a looser hold on the target, low ones a stronger hold on the target. `O=C(N[C@H]1C=C[C@@]2(O)[C@H]3Cc4ccc(O)c5c4[C@@]2(CCN3CC2CC2)[C@H]1O5)c1c[nH]c2ccccc12` gave an EC50 in experiment [3] of 1 nM. Further, the Ki in experiment [4] was 0.29 nM. Also, the Emax in experiment [2] is 33.3%.
As to `O=C(N[C@H]1C=C[C@@]2(O)[C@H]3Cc4ccc(O)c5c4[C@@]2(CCN3CC2CC2)[C@H]1O5)c1n[nH]c2ccccc12`, the Emax in experiment [1] was determined as 12.3%.
On to `O=C(N[C@@H]1C=C[C@@]2(O)[C@H]3Cc4ccc(O)c5c4[C@@]2(CCN3CC2CC2)[C@H]1O5)c1n[nH]c2ccccc12`, for which the Emax in experiment [1] was found to be 39.6%.
Same read-out and setting: next, `O=C(N[C@@H]1C=C[C@@]2(O)[C@H]3Cc4ccc(O)c5c4[C@@]2(CCN3CC2CC2)[C@H]1O5)c1c[nH]c2cnccc12`: 26.2%; `O=C(N[C@@H]1C=C[C@@]2(O)[C@H]3Cc4ccc(O)c5c4[C@@]2(CCN3CC2CC2)[C@H]1O5)c1c[nH]c2cccnc12`: 22.4%.
On the same count and under the same terms, with `O=C(N[C@H]1C=C[C@@]2(O)[C@H]3Cc4ccc(O)c5c4[C@@]2(CCN3CC2CC2)[C@H]1O5)c1c[nH]c2ccncc12` the figure was 21.7%.
The molecule `O=C(N[C@@H]1C=C[C@@]2(O)[C@H]3Cc4ccc(O)c5c4[C@@]2(CCN3CC2CC2)[C@H]1O5)c1c[nH]c2ccccc12` yielded an EC50 in experiment [3] of 0.22 nM. Also, in experiment [4], the inhibitory constant (Ki) turned out to be 0.19 nM. Further, the maximal response (Emax) in experiment [2] (filed as partial agonist) turned out to be 79.5%.
